Source: patent publication EP0241232A1, “Isoxazolylethanol derivatives” (SHIONOGI SEIYAKU KABUSHIKI KAISHA, priority 1986, dated 1987)

Tests used:
Puccinia coronata = assay: Control by seed-soaking: crown rust in oats; type: in vivo
Experimental: (§1) The test compound was dissolved in 0.2 ml of acetone and suspended in demineralized distilled water containing a small amount of spreader, to a concentration of 500 ppm. The suspension was further diluted to one quarter dilution with demineralized distilled water (containing a small amount of spreader) to give a suspension in 125 ppm. All seeds of oats, wheat and cucumber were soaked in these suspensions at room temperature for an hour and then the seeds were air-dried.
(§2) The seeds as described above were sown in plastic pots (diameter : 9 cm). For rust and powdery mildews, the pots were kept in a glasshouse for 1 - 3 weeks until the seeds grew to young plants. The young oats (10 - 20 plants per pot) were inoculated by dusting with spores of Puccinia coronata, and the wheat (10 - 20 plants per pot) was also inoculated by spraying with spores of Erysiphe graminis f. sp. tritici, and the cucumber (1 plant per pot) was also inoculated by spraying with spore suspension of Sphaerotheca fuliginea. These inoculated plants were further kept in a glasshouse for 10 - 14 days until assessment. For damping-off, the treated seeds were sown in paper pots (diameter : 7.5 cm; depth : 6 cm) which contained soil infested with Rhizoctonia solani by mixing sterilized soil and pre-cultured fungus. Then the pots were kept in a humid glasshouse at 25 - 32 ^*C.
(§3) Damping-off was observed 15 days after sowing, and disease degree and control effect were obtained from the following equations. [formula] [formula] where diseased seedlings included damping-off and unemerged'seeds due to infection. For the foliar diseases, disease development was observed 10 - 14 days after inoculation of spores, and control effect was obtained by the following index.

Rhizoctonia solani [1] = assay: Control of cucumber damping-off by soil drench; type: in vivo; details: 30 ml per cup, judged 15 days after inoculation
Experimental: as §3
The test compound was dissolved in a small amount of acetone and suspended in demineralized distilled water containing a spreader, to a concentration of 125 ppm and 31 ppm. The soil sterilized by an autoclave was put into paper cups (diameter : 7.5 cm; depth : 6 cm) and cucumber seeds (c.v. : Matsukaze) were sown in the cups (10 seeds/pot). Then the soil surface was covered with the following soil containing pathogen. And then 30 ml of the formation of the test compound was applied to the soil in the cup.
Rhizoctonia solani incubated in a bran medium at 28 °C for 5 days was put into sterile soil and cultured for 24 hr. The inoculated soil was diluted with sterile soil to about 4 times volume. The soil surface in the cups containing cucumber seeds was covered with the soil containing Rhizoctonia solani.
Control effect was judged 15 days after inoculation and control percent was obtained as described in Experiment 3.

[2] = test system: Erysiphe graminis f. sp. tritici; assay: Control by seed-soaking: powdery mildew in wheat; type: in vivo
Experimental: as §1, §2, §3

Rhizoctonia solani [3] = assay: Control by seed-soaking: Rhizoctonia damping-off in cucumber; type: in vivo; details: 360 h, seed-soaking, observed 15 days after sowing, control effect by equation, read-out: Control Index Rhizoctonia Damping-Off in Cucumber
Experimental: as §1, §2, §3

Candida albicans KE-2 [4] = assay: Inhibition test against pseudomycelium formation of Candida albicans; type: cell-based; details: KE2, minimum effective concentration preventing typical pseudomycelium formation, Eagle-MEM + 20 % calf serum, 18 hours at 37 °C, read-out: Inhibitory Concentration of Pseudo-myselium Formation
Experimental: Candida albicans KE-2 was inoculated to Eagle-MEM medium (Nissan 2 made by Nissui Seiyaku, Ltd.) supplemented with 20 % calf serum so that its final inoculum of yeast cell might be 1 x 10^6 yeast cells per milliliter. The test compounds were added thereon in two fold dilution series. After incubation for 18 hours at 37 °C, the fungal growth in each drug concentration was smeared and fixed on a slide glass, and the presence or absence of the pseudomycelium formation was examined by a microscope following Giemsa staining. Minimum effective concentration was defined as the lowest concentration of the compound which prevented typical pseudomycelium formation.

Sphaerotheca fuliginea [5] = assay: Control by seed-soaking: powdery mildew in cucumber; type: in vivo
Experimental: as §1, §2, §3

Sphaerotheca fuliginea [6] = assay: Control of cucumber powdery mildew by foliar spray; type: in vivo; details: observed 10 days after inoculation; for Control Index Preventive Effect: inoculation 24 hr. after application; for Control Index Curative Effect: inoculation 24 hr. before application
Experimental: The test compound was dissolved in a small amount of acetone and suspended in demineralized distilled water containing a spreader, to a concentration of 7.8 ppm and 2.0 ppm. Young cucumber plants (c.v. Tsukuba-Shiroibo) of 2-leaf stage grown in pots were sprayed sufficiently with the suspension.
Spores of Sphaerotheca fuliginea cultured in cucumber plants were collected and suspended in distilled water. Inoculation was made by spraying with the spore suspension to the test plant of 24 hr. after application of the test compound (preventive control) or 24 hr. before application (curative control).
Development of the disease was observed 10 days after inoculation and control index was obtained as described in Experiment 3.

Candida albicans KE-2 [7] = assay: Therapeutic effect against experimental candidiasis in mice; type: in vivo; details: KE2, po, 120 h, mouse survival ratio on the 5th day after infection, Jcl-ICR female mouse, 50 mg/kg orally three times (0, 4, 24 hours)
Experimental: After Candida albicans KE-2 was incubated on Sabouraud's glucose agar at 28 °C for 48 hr., it was suspended in Sabouraud's glucose broth and the cells ([…]) were injected to a tail vein of Jcl-ICR female mouse (4 weeks age; weight : 18 - 20 g). A suspension of the test compound in 2 % gum arabic was orally administered three times, immediately after infection of the yeast ( 0 hour), after 4 hours and after 24 hours, as a dosage of 50 mg/kg. Non-treated group was used as control. Each eight mice per group was used in control group and treated group. All the mice in control group died within 48 hr. after infection. Therapeutic effect of the test compound was judged by mouse survival ratio on the 5th day after infection.

With OC(Cn1cncn1)(c1ccon1)c1ccc(F)cc1F (stereo not drawn) [Ia - 4] the “Control Index Crown Rust in Oats” value (Puccinia coronata; 125 ppm) was 50 (Leaves covered with symptom between 46 % and 65 % area), the “Control Index Crown Rust in Oats” value (Puccinia coronata; 500 ppm) was 97 (Leaves covered with symptom less than 3 % area) and the Control (Rhizoctonia solani [1]; soil drench 31 ppm) was 100%. For the same molecule, the Control (Rhizoctonia solani [1]; soil drench 125 ppm) was 100%, the “Control Index Powdery Mildew in Wheat” value ([2]; 125 ppm) was 50 (Leaves covered with symptom between 46 % and 65 % area) and the “Control Index Powdery Mildew in Wheat” value ([2]; 500 ppm) was 100. The pest or weed control at 125 ppm (Rhizoctonia solani [3]) was 53%, the pest or weed control at 500 ppm (Rhizoctonia solani [3]) was 86% and the minimal effective concentration (Candida albicans KE-2 [4]) was 0.16 µg/mL. The “Control Index Powdery Mildew in Cucumber” value (Sphaerotheca fuliginea [5]; 125 ppm) was 50 (Leaves covered with symptom between 46 % and 65 % area), the “Control Index Powdery Mildew in Cucumber” value (Sphaerotheca fuliginea [5]; 500 ppm) was 70 (Leaves covered with symptom between 16 % and 45 % area) and the “Control Index Preventive Effect” value (Sphaerotheca fuliginea [6]; foliar spray 2.0 ppm) was 97 (Leaves covered with symptom less than 3 % area). For the same molecule, the “Control Index Curative Effect” value (Sphaerotheca fuliginea [6]; foliar spray 2.0 ppm) was 100, the “Control Index Preventive Effect” value (Sphaerotheca fuliginea [6]; foliar spray 7.8 ppm) was 100 and the “Control Index Curative Effect” value (Sphaerotheca fuliginea [6]; foliar spray 7.8 ppm) was 100. It also gave a responders at 50 mg/kg (Candida albicans KE-2 [7]) of 100%.

With OC(Cn1cncn1)(c1ccc(Cl)cc1)c1ccon1 (stereo not drawn) [Ia - 2] the “Control Index Crown Rust in Oats” value (Puccinia coronata; 125 ppm) was 70 (Leaves covered with symptom between 16 % and 45 % area), the “Control Index Crown Rust in Oats” value (Puccinia coronata; 500 ppm) was 100 and the Control (Rhizoctonia solani [1]; soil drench 31 ppm) was 100%. The Control (Rhizoctonia solani [1]; soil drench 125 ppm) was 100%, the “Control Index Powdery Mildew in Wheat” value ([2]; 125 ppm) was 100 and the “Control Index Powdery Mildew in Wheat” value ([2]; 500 ppm) was 100. It also gave a pest or weed control at 125 ppm (Rhizoctonia solani [3]) of 93%, a pest or weed control at 500 ppm (Rhizoctonia solani [3]) of 100% and a minimal effective concentration (Candida albicans KE-2 [4]) of 0.04 µg/mL. The “Control Index Powdery Mildew in Cucumber” value (Sphaerotheca fuliginea [5]; 125 ppm) was 70 (Leaves covered with symptom between 16 % and 45 % area), the “Control Index Powdery Mildew in Cucumber” value (Sphaerotheca fuliginea [5]; 500 ppm) was 90 (Leaves covered with symptom between 4 % and 15 % area) and the “Control Index Preventive Effect” value (Sphaerotheca fuliginea [6]; foliar spray 2.0 ppm) was 97 (Leaves covered with symptom less than 3 % area). For the same molecule, the “Control Index Curative Effect” value (Sphaerotheca fuliginea [6]; foliar spray 2.0 ppm) was 100, the “Control Index Preventive Effect” value (Sphaerotheca fuliginea [6]; foliar spray 7.8 ppm) was 100 and the “Control Index Curative Effect” value (Sphaerotheca fuliginea [6]; foliar spray 7.8 ppm) was 100. For the same molecule, the responders at 50 mg/kg (Candida albicans KE-2 [7]) was 100%.

OC(Cn1cncn1)(c1ccon1)c1ccc(Cl)cc1Cl (stereo not drawn) [Ia - 3] was tested, and the “Control Index Crown Rust in Oats” value (Puccinia coronata; 125 ppm) was 97 (Leaves covered with symptom less than 3 % area), the “Control Index Crown Rust in Oats” value (Puccinia coronata; 500 ppm) was 100 and the Control (Rhizoctonia solani [1]; soil drench 31 ppm) was 100%. The Control (Rhizoctonia solani [1]; soil drench 125 ppm) was 100%, the “Control Index Powdery Mildew in Wheat” value ([2]; 125 ppm) was 70 (Leaves covered with symptom between 16 % and 45 % area) and the “Control Index Powdery Mildew in Wheat” value ([2]; 500 ppm) was 100. It also gave a pest or weed control at 125 ppm (Rhizoctonia solani [3]) of 100%, a pest or weed control at 500 ppm (Rhizoctonia solani [3]) of 94% and a minimal effective concentration (Candida albicans KE-2 [4]) of 0.02 µg/mL. For the same molecule, the “Control Index Powdery Mildew in Cucumber” value (Sphaerotheca fuliginea [5]; 125 ppm) was 50 (Leaves covered with symptom between 46 % and 65 % area), the “Control Index Powdery Mildew in Cucumber” value (Sphaerotheca fuliginea [5]; 500 ppm) was 70 (Leaves covered with symptom between 16 % and 45 % area) and the “Control Index Preventive Effect” value (Sphaerotheca fuliginea [6]; foliar spray 2.0 ppm) was 100. The “Control Index Curative Effect” value (Sphaerotheca fuliginea [6]; foliar spray 2.0 ppm) was 100, the “Control Index Preventive Effect” value (Sphaerotheca fuliginea [6]; foliar spray 7.8 ppm) was 100 and the “Control Index Curative Effect” value (Sphaerotheca fuliginea [6]; foliar spray 7.8 ppm) was 100. The responders at 50 mg/kg (Candida albicans KE-2 [7]) was 100%.
